In patent publication US4945171A, “Xanthene dyes having a fused (C) benzo ring” (Molecular Probes, Inc., priority 1987, dated 1990):

Experiments:
[1] = absorption spectra (maxima and extinction coefficients) of benzo[c]xanthene dyes; assay type: physicochemical; details: for ABSORPTION, ACID MAXIMA (second) / EXTINCTION COEFFICIENT, ACID MAXIMA (second) / ABSORPTION, ACID MAXIMA (first) / EXTINCTION COEFFICIENT, ACID MAXIMA (first): acid form; for ABSORPTION, ACID MAXIMA (second) / EXTINCTION COEFFICIENT, ACID MAXIMA (second): longer-wavelength maximum; for ABSORPTION, ACID MAXIMA (first) / EXTINCTION COEFFICIENT, ACID MAXIMA (first): shorter-wavelength maximum; for ABSORPTION, BASE MAXIMUM / EXTINCTION COEFFICIENT, BASE MAXIMUM: base form
Description: (§1) A stock solution was prepared by dissolving 7.6 mg of compound 3 in 2.00 ml methanol. The stock solution was diluted ten-fold into 40 mM pH 9.00 potassium phosphate buffer. Absorbance solutions were prepared by further diluting 25 μl of the aqueous stock solution to 2.025 ml with 40 mM potassium phosphate buffers of the appropriate pH.

[2] = fluorescence excitation/emission and quantum yield of benzo[c]xanthene dyes; assay type: physicochemical; details: for FLUORESCENCE, ACID EMIT / FLUORESCENCE, ACID EXCITE: acid form; for FLUORESCENCE, BASE EMIT / FLUORESCENCE, BASE EXCITE: base form; for APPROX. QY. (quantum yield): relative to fluorescein or sulforhodamine 101
Excerpt: Fluorescence data was obtained on a Perkin-Elmer Model 650-40 Fluorescence Spectrophotometer with a Perkin-Elmer/Hitachi 057 X-Y Recorder using a tenfold dilution of the absorbance solutions. An estimate of the quantum yield of the dyes relative to fluorescein or sulforhodamine 101 was obtained by integrating the emission spectrum of the dye excited at the same optical density as the standard.

[3] = determination of the pKa for the benzo[c]xanthene indicators from plot of absorbance ratios versus pH; details: 40 mM potassium phosphate buffers
Description: as §1

physchem = details: 40 mm potassium phosphate buffer
Description: as §1

cells = details: cited from earlier work
[4] = potassium phosphate buffer, pH 7.0

5'-(and-6')-carboxy-3,10-dihydroxy-spiro[7H-benzo[c]xanthene-7,1'(3'H)-isobenzofuran]-3'-one [Compound 2]
ABSORPTION, ACID MAXIMA (second) [1]: 508 NM | EXTINCTION COEFFICIENT, ACID MAXIMA (second) [1]: 28.5 10^3 cm^-1 M^-1 | ABSORPTION, ACID MAXIMA (first) [1]: 479 NM | EXTINCTION COEFFICIENT, ACID MAXIMA (first) [1]: 22.8 10^3 cm^-1 M^-1 | ABSORPTION, BASE MAXIMUM [1]: 537 NM | EXTINCTION COEFFICIENT, BASE MAXIMUM [1]: 44.4 10^3 cm^-1 M^-1 | FLUORESCENCE, ACID EMIT [2]: 543 NM | FLUORESCENCE, ACID EXCITE [2]: 514 NM | FLUORESCENCE, BASE EMIT [2]: 623 NM | FLUORESCENCE, BASE EXCITE [2]: 543 NM | APPROX. QY. (quantum yield) [2]: ~0.35 | pKa [3]: 7.80

O=C1OC2(c3ccc(O)cc3Oc3c2ccc2cc(O)ccc32)c2ccccc21 (centres unmarked) [Compound 1, 3,10-dihydroxy-spiro[7H-benzo[c]xanthen-7,1'(3'H)-isobenzofuran]-3'-one]
EXTINCTION COEFFICIENT, ACID MAXIMA (second) [1]: 28.2 10^3 cm^-1 M^-1 | ABSORPTION, ACID MAXIMA (first) [1]: 480 NM | EXTINCTION COEFFICIENT, ACID MAXIMA (first) [1]: 24.8 10^3 cm^-1 M^-1 | ABSORPTION, BASE MAXIMUM [1]: 537 NM | EXTINCTION COEFFICIENT, BASE MAXIMUM [1]: 49.7 10^3 cm^-1 M^-1 | FLUORESCENCE, ACID EMIT [2]: 539 NM | FLUORESCENCE, ACID EXCITE [2]: 513 NM | FLUORESCENCE, BASE EMIT [2]: 618 NM | FLUORESCENCE, BASE EXCITE [2]: 540 NM | APPROX. QY. (quantum yield) [2]: ~0.34 | pKa (physchem): 7.85

O=C(O)c1ccc2c(c1)C1(OC2=O)c2cc(Cl)c(O)cc2Oc2c1ccc1cc(O)ccc21 (centres unmarked) [Compound 3]
ABSORPTION, ACID MAXIMA (second) [1]: 514 NM | EXTINCTION COEFFICIENT, ACID MAXIMA (second) [1]: 25.3 10^3 cm^-1 M^-1 | ABSORPTION, ACID MAXIMA (first) [1]: 485 NM | EXTINCTION COEFFICIENT, ACID MAXIMA (first) [1]: 20.5 10^3 cm^-1 M^-1 | ABSORPTION, BASE MAXIMUM [1]: 547 NM | EXTINCTION COEFFICIENT, BASE MAXIMUM [1]: 40.4 10^3 cm^-1 M^-1 | FLUORESCENCE, ACID EMIT [2]: 546 NM | FLUORESCENCE, ACID EXCITE [2]: 517 NM | FLUORESCENCE, BASE EMIT [2]: 630 NM | FLUORESCENCE, BASE EXCITE [2]: 552 NM | APPROX. QY. (quantum yield) [2]: ~0.48 | pKa (physchem): 7.65

CN(C)c1ccc2c(c1)Oc1c(ccc3cc(O)ccc13)C21OC(=O)c2ccccc21 (centres unmarked) [Compound 5]
ABSORPTION, ACID MAXIMA (second) [1]: 544 NM | EXTINCTION COEFFICIENT, ACID MAXIMA (second) [1]: 21.6 10^3 cm^-1 M^-1 | ABSORPTION, ACID MAXIMA (first) [1]: 515 NM | EXTINCTION COEFFICIENT, ACID MAXIMA (first) [1]: 17.7 10^3 cm^-1 M^-1 | ABSORPTION, BASE MAXIMUM [1]: 573 NM | EXTINCTION COEFFICIENT, BASE MAXIMUM [1]: 44.1 10^3 cm^-1 M^-1 | FLUORESCENCE, ACID EMIT [2]: 585 NM | FLUORESCENCE, ACID EXCITE [2]: 549 NM | FLUORESCENCE, BASE EMIT [2]: 632 NM | FLUORESCENCE, BASE EXCITE [2]: 582 NM | APPROX. QY. (quantum yield) [2]: ~0.19 | pKa (physchem): 7.6

CCN(CC)c1ccc2c(c1)Oc1c(ccc3cc(O)ccc13)C21OC(=O)c2ccccc21 (centres unmarked) [Compound 6]
ABSORPTION, ACID MAXIMA (second) [1]: 550 NM | EXTINCTION COEFFICIENT, ACID MAXIMA (second) [1]: 24.4 10^3 cm^-1 M^-1 | ABSORPTION, ACID MAXIMA (first) [1]: 518 NM | EXTINCTION COEFFICIENT, ACID MAXIMA (first) [1]: 20.5 10^3 cm^-1 M^-1 | ABSORPTION, BASE MAXIMUM [1]: 577 NM | EXTINCTION COEFFICIENT, BASE MAXIMUM [1]: 46.4 10^3 cm^-1 M^-1 | FLUORESCENCE, ACID EMIT [2]: 583 NM | FLUORESCENCE, ACID EXCITE [2]: 557 NM | FLUORESCENCE, BASE EMIT [2]: 632 NM | FLUORESCENCE, BASE EXCITE [2]: 582 NM | APPROX. QY. (quantum yield) [2]: ~0.23 | pKa (physchem): 7.5

CCNc1cc2c(cc1C)C1(OC(=O)c3ccccc31)c1ccc3cc(O)ccc3c1O2 (centres unmarked) [Compound 7]
ABSORPTION, ACID MAXIMA (second) [1]: 522 NM | ABSORPTION, ACID MAXIMA (first) [1]: 495 NM | ABSORPTION, BASE MAXIMUM [1]: 552 NM | FLUORESCENCE, ACID EMIT [2]: 552 NM | FLUORESCENCE, ACID EXCITE [2]: 525 NM | FLUORESCENCE, BASE EMIT [2]: 629 NM | FLUORESCENCE, BASE EXCITE [2]: 558 NM | APPROX. QY. (quantum yield) [2]: ~0.38 | pKa (physchem): 7.7

CN(C)c1ccc2c(c1)Oc1c(ccc3cc(O)ccc13)C21OC(=O)c2cc(C(=O)O)ccc21 (centres unmarked) [Compound 8, 5'-carboxy-10-dimethylamino-3-hydroxy-spiro[7H-benzo[c]xanthene-7,1'(3'H)-isobenzofuran]-3'-one]
ABSORPTION, ACID MAXIMA (second) [1]: 548 NM | EXTINCTION COEFFICIENT, ACID MAXIMA (second) [1]: 25.7 10^3 cm^-1 M^-1 | ABSORPTION, ACID MAXIMA (first) [1]: 518 NM | EXTINCTION COEFFICIENT, ACID MAXIMA (first) [1]: 23.2 10^3 cm^-1 M^-1 | ABSORPTION, BASE MAXIMUM [1]: 574 NM | EXTINCTION COEFFICIENT, BASE MAXIMUM [1]: 44.9 10^3 cm^-1 M^-1 | FLUORESCENCE, ACID EMIT [2]: 587 NM | FLUORESCENCE, ACID EXCITE [2]: 556 NM | FLUORESCENCE, BASE EMIT [2]: 636 NM | FLUORESCENCE, BASE EXCITE [2]: 581 NM | APPROX. QY. (quantum yield) [2]: ~0.20 | pKa (physchem): 7.5

CCN(CC)c1ccc2c(c1)Oc1c(ccc3cc(O)ccc13)C21OC(=O)c2ccc(C(=O)O)cc21 (centres unmarked) [Compound 9]
ABSORPTION, ACID MAXIMA (second) [1]: 550 NM | EXTINCTION COEFFICIENT, ACID MAXIMA (second) [1]: 29.7 10^3 cm^-1 M^-1 | ABSORPTION, ACID MAXIMA (first) [1]: 517 NM | EXTINCTION COEFFICIENT, ACID MAXIMA (first) [1]: 26.2 10^3 cm^-1 M^-1 | ABSORPTION, BASE MAXIMUM [1]: 577 NM | EXTINCTION COEFFICIENT, BASE MAXIMUM [1]: 51.5 10^3 cm^-1 M^-1 | FLUORESCENCE, ACID EMIT [2]: 583 NM | FLUORESCENCE, ACID EXCITE [2]: 558 NM | FLUORESCENCE, BASE EMIT [2]: 633 NM | FLUORESCENCE, BASE EXCITE [2]: 582 NM | APPROX. QY. (quantum yield) [2]: ~0.24 | pKa (physchem): 7.75

O=C(O)c1ccc2c(c1)C(=O)OC21c2cc3c4c(c2Oc2c1ccc1cc(O)ccc21)CCCN4CCC3 (centres unmarked) [Compound 11, [h,i]julolidino-spiro[7H-benzo[c]xanthen-7,1'(3'H)-isobenzofuran]-3'-one]
ABSORPTION, ACID MAXIMA (second) [1]: 569 NM | EXTINCTION COEFFICIENT, ACID MAXIMA (second) [1]: 19.4 10^3 cm^-1 M^-1 | ABSORPTION, ACID MAXIMA (first) [1]: 529 NM | EXTINCTION COEFFICIENT, ACID MAXIMA (first) [1]: 22.2 10^3 cm^-1 M^-1 | ABSORPTION, BASE MAXIMUM [1]: 587 NM | EXTINCTION COEFFICIENT, BASE MAXIMUM [1]: 38.7 10^3 cm^-1 M^-1 | FLUORESCENCE, ACID EMIT [2]: 599 NM | FLUORESCENCE, ACID EXCITE [2]: 530 NM | FLUORESCENCE, BASE EMIT [2]: 630 NM | FLUORESCENCE, BASE EXCITE [2]: 590 NM | APPROX. QY. (quantum yield) [2]: ~0.35 | pKa (physchem): 7.9

CC(=O)Oc1ccc2c3c(ccc2c1)C1(OC(=O)c2cc(C(=O)O)ccc21)c1ccc(N(C)C)cc1O3 (centres unmarked) [Compound 14, 3-acetoxy-5'-carboxy-10-dimethylamino-spiro[7H-benzo[c]xanthene-7,1'(3'H)-isobenzofuran]-3'-one]
Absorbance maximum (first) [1, 4]: 511 nm | Absorbance maximum (second) [1, 4]: 540 nm | extinction coefficient (first maximum) [1, 4]: 24,100 cm^-1 M^-1 | extinction coefficient (second maximum) [1, 4]: 21,700 cm^-1 M^-1

N#Cc1c(O)ccc(O)c1C#N [Dihydroxyphthalonitrile]
membrane permeability (cells): high membrane permeability | retention by cells (cells; due to its high membrane permeability): not well retained by cells
